Laboratory results as given in patent publication US12640251B2, “Methods of treating dementia associated with alzheimer's disease with protective protein/cathepsin A (PPCA)” (St. Jude Children's Research Hospital, priority 2011, dated 2026).
“Also recorded” adds a separate entry of the source.

Columns and labels:
[1] = tested on: SKNEP1 cells; test: DOXO response of Ewing sarcoma cell line; assay type: cell-based; conditions: low-NEU1 cells
Source text: (§1) We, therefore, characterized other tumor cell lines, in terms of their invasive potential and NEU1 status. We chose the Ewing sarcoma cell lines, EW8 and SKNEP1, for their divergent NEU1 levels. Similar to the RMS cell lines, the low-NEU1 SKNEP1 cells accumulated oversialylated LAMP1, were resistant to DOXO, and more successfully invaded matrigel and peritoneal basement membranes than did the high-NEU1 DOXO-sensitive EW8 cells (data not shown). We also analyzed the colon carcinoma cell lines, SW480 and SW620, because of their well-characterized derivation (Leibovitz et al., 1976): SW480 cells are from a primary colon carcinoma; SW620 cells are from a metastatic recurrence. […] This was also paralleled by a drastic increase in LAMP1 levels compared to that in SW480 (data not shown).

[2] = tested on: EW8 cells; test: DOXO response of Ewing sarcoma cell line; assay type: cell-based; conditions: high-NEU1 cells
Source text: as §1

[3] = tested on: RH30^NEU1 cells; test: DOXO dose response, apoptotic response (cleaved PARP immunoblot); assay type: cell-based, human; conditions: compared with unmodified controls
Description: (§2) Finally, we generated DOXO dose response curves in both parental cell lines and the modified lines to examine the differences in their apoptotic responses. Immunoblots of the cleaved poly (ADP-ribose) polymerase (PARP), a canonical apoptotic marker, were used for this purpose (data not shown).
(§3) RH30 cells were transduced with the pBABE-puro retroviral vector (AddGene), either unmodified or containing the human NEU1 cDNA. Transduced cells were selected with puromycin (2 μg/mL), according to the predetermined sensitivity of the cell line, and were maintained in 0.5 μg/mL selection medium. RH41 cells were transfected with a panel of NEU1 shRNA plasmids (RHS4533-NM000434, Open Biosystems) or the accompanying empty vector control. The cells were selected with puromycin and maintained under selection medium.

[4] = tested on: RH41^shNEU1 cells; test: as above; assay type: cell-based, human; conditions: compared with corresponding unmodified cells
Description: as §2, §3

[5] = tested on: RH30 cells; test: Doxorubicin efflux assay; assay type: cell-based, human; conditions: 3 μg/mL DOXO for 2 hours, then DOXO-free medium for 2 hours
Description: Cells were plated and maintained at 50% confluency. The next day, they were treated with medium containing 3 μg/mL DOXO for 2 hours. Treated cells were then washed 3 times with PBS and cultured in DOXO-free medium for an additional 2 hours, to allow efflux of the drug into fresh medium. The conditioned medium was then centrifuged at 1000 rpm […] for 5 minutes and a 500 μL aliquot was spun through an ULTRAFREE-MC 0.1 μm Eppendorf centrifugal filter (Millipore) to capture the effluxed drug. The filter was then placed on a microscopic slide and images of the red fluorescence filter were taken on a Nikon Cl microscope.

[6] = tested on: RH41 cells; test: Doxorubicin exposure, apoptotic response (cleaved PARP immunoblot); assay type: cell-based, human; conditions: parental RH41 cells, high NEU1

COc1cccc2c1C(=O)c1c(O)c3c(c(O)c1C2=O)C[C@@](O)(C(=O)CO)C[C@@H]3O[C@H]1C[C@H](N)[C@H](O)[C@H](C)O1 [doxorubicin]
response to DOXO [1]: resistant | response to DOXO [2]: sensitive | apoptotic response to DOXO [3]: more sensitive | apoptotic response to DOXO [4]: more resistant to apoptosis | efflux of DOXO into culture medium (red fluorescence) [5]: released from these cells | response to doxorubicin (apoptosis) [6]: highly susceptible; also recorded: readily apoptosed
